From ChEMBL document CHEMBL1681651, “A broad spectrum anticancer nucleoside with selective toxicity against human colon cells in vitro” (2011)

Tests used:
Type in all cases: functional
SF-539 = experiment: Growth inhibition of human SF539 cells after 48 hrs by […] growth inhibition assay; conditions: SF-539, 48 h
SNB-19 = experiment: Growth inhibition of human SNB19 cells after 48 hrs by […] growth inhibition assay; conditions: SNB-19, 48 h
SN12C [1] = experiment: Growth inhibition of human SN12C cells assessed as cell growth at 10 uM after 48 hrs by SRB assay; conditions: read-out: Activity
UACC-62 = experiment: Growth inhibition of human UACC62 cells assessed as cell growth at 1 uM after 48 hrs by SRB assay; conditions: UACC-62, 48 h, read-out: Activity
COLO 205 = experiment: Growth inhibition of human COLO205 cells assessed as cell growth at 0.1 uM after 48 hrs by SRB assay; conditions: COLO 205, 48 h, read-out: Activity
CCRF-CEM = experiment: Growth inhibition of human CCRF-CEM cells assessed as cell growth at 10 uM after 48 hrs by SRB assay; conditions: read-out: Activity
U-251 [2] = experiment: Growth inhibition of human U251 cells after 48 hrs by […] growth inhibition assay; conditions: U-251, 48 h
MDA-MB-435 = experiment: Growth inhibition of human MDA-MB-435 cells assessed as cell growth at 0.1 uM after 48 hrs by SRB assay; conditions: MDA-MB-435, 48 h, read-out: Activity
NCI-H522 = experiment: Growth inhibition of human NCI-H522 cells assessed as cell growth at 1 mM after 48 hrs by SRB assay; conditions: NCI-H522, 48 h, read-out: Activity
CAKI-1 = experiment: Growth inhibition of human Caki1 cells assessed as cell growth at 1 uM after 48 hrs by SRB assay; conditions: CAKI-1, 48 h, read-out: Activity
HOP-92 [3] = experiment: Growth inhibition of human HOP92 cells after 48 hrs by […] growth inhibition assay; conditions: HOP-92, 48 h
HOP-92 [4] = experiment: Growth inhibition of human HOP92 cells assessed as cell growth at 1 mM after 48 hrs by SRB assay; conditions: HOP-92, 48 h, read-out: Activity
EKVX [5] = experiment: Growth inhibition of human EKVX cells assessed as cell growth at 100 uM after 48 hrs by SRB assay; conditions: read-out: Activity
IGROV-1 = experiment: Growth inhibition of human IGROV1 cells assessed as cell growth at 10 uM after 48 hrs by SRB assay; conditions: IGROV-1, 48 h, read-out: Activity
DU-145 [6] = experiment: Growth inhibition of human DU145 cells assessed as cell growth at 100 uM after 48 hrs by SRB assay; conditions: DU-145, 48 h, read-out: Activity
EKVX [7] = experiment: Growth inhibition of human EKVX cells assessed as cell growth at 10 uM after 48 hrs by SRB assay; conditions: read-out: Activity
SN12C [8] = experiment: Growth inhibition of human SN12C cells after 48 hrs by […] growth inhibition assay
DU-145 [9] = experiment: Growth inhibition of human DU145 cells after 48 hrs by […] growth inhibition assay; conditions: DU-145, 48 h
HCT-116 = experiment: Growth inhibition of human HCT116 cells assessed as cell growth at 1 uM after 48 hrs by SRB assay; conditions: HCT-116, 48 h, read-out: Activity
HT-29 = experiment: Growth inhibition of human HT-29 cells assessed as cell growth at 100 uM after 48 hrs by SRB assay; conditions: HT-29, 48 h, read-out: Activity
SF-295 = experiment: Growth inhibition of human SF295 cells assessed as cell growth at 100 uM after 48 hrs by SRB assay; conditions: SF-295, 48 h, read-out: Activity
OVCAR-5 = experiment: Growth inhibition of human OVCAR5 cells assessed as cell growth at 0.1 uM after 48 hrs by SRB assay; conditions: OVCAR-5, 48 h, read-out: Activity
T47D = experiment: Growth inhibition of human T47D cells assessed as cell growth at 1 uM after 48 hrs by SRB assay; conditions: read-out: Activity
HCC 2998 = experiment: Growth inhibition of human HCC2998 cells assessed as cell growth at 1 uM after 48 hrs by SRB assay; conditions: HCC 2998, 48 h, read-out: Activity
786-0 = experiment: Growth inhibition of human 786-0 cells assessed as cell growth at 0.1 uM after 48 hrs by SRB assay; conditions: 786-0, 48 h, read-out: Activity
PC-3 = experiment: Growth inhibition of human PC3 cells after 48 hrs by […] growth inhibition assay; conditions: PC-3, 48 h
LOX IMVI = experiment: Growth inhibition of human LOXIMVI cells assessed as cell growth at 0.1 uM after 48 hrs by SRB assay; conditions: read-out: Activity
BT-549 = experiment: Growth inhibition of human BT549 cells assessed as cell growth at 10 uM after 48 hrs by SRB assay; conditions: BT-549, 48 h, read-out: Activity
ACHN = experiment: Growth inhibition of human ACHN cells assessed as cell growth at 0.1 uM after 48 hrs by SRB assay; conditions: read-out: Activity
KM12 = experiment: Growth inhibition of human KM12 cells assessed as cell growth at 100 uM after 48 hrs by SRB assay; conditions: KM12, 48 h, read-out: Activity
NCI-H322M = experiment: Growth inhibition of human NCI-H322M cells assessed as cell growth at 0.1 uM after 48 hrs by SRB assay; conditions: read-out: Activity
U-251 [10] = experiment: Growth inhibition of human U251 cells assessed as cell growth at 1 uM after 48 hrs by SRB assay; conditions: U-251, 48 h, read-out: Activity
OVCAR-3 = experiment: Growth inhibition of human OVCAR3 cells assessed as cell growth at 0.1 uM after 48 hrs by SRB assay; conditions: OVCAR-3, 48 h, read-out: Activity
[11] = read-out: LC50 (the source's name)
[12] = read-out: pLC50 (the source's name) (converted)

Compound: CNC(=O)NC[C@H]1O[C@@H](n2cnc3c(NC(=O)Nc4ccccc4)ncnc32)[C@H](O[Si](C)(C)C(C)(C)C)[C@@H]1O[Si](C)(C)C(C)(C)C
- GI50 (SF-539; read-out: GI50): 3.07 µM
- CC50 (SF-539; [11]): 94.3 µM
- TGI (SF-539; read-out: TGI): 13 µM
- GI50 (SF-539; read-out: pGI50 (converted)): 3.09 µM
- CC50 (SF-539; [12]): 93.3 µM
- TGI (SF-539; read-out: pTGI (converted)): 12.9 µM
- GI50 (SNB-19; read-out: GI50): 4.57 µM
- CC50 (SNB-19; [11]): > 100 µM
- TGI (SNB-19; read-out: TGI): > 100 µM
- GI50 (SNB-19; read-out: pGI50 (converted)): 4.57 µM
- CC50 (SNB-19; [12]): > 100 µM
- TGI (SNB-19; read-out: pTGI): > 100 µM
- growth at 10 µM (SN12C [1]): 98%
- growth at 1 µM (UACC-62): 100%
- growth at 0.1 µM (COLO 205): 109%
- growth at 10 µM (CCRF-CEM): 101%
- GI50 (U-251 [2]; read-out: GI50): 2.96 µM
- CC50 (U-251 [2]; [11]): > 100 µM
- TGI (U-251 [2]; read-out: TGI): 10.8 µM
- GI50 (U-251 [2]; read-out: pGI50 (converted)): 2.95 µM
- CC50 (U-251 [2]; [12]): > 100 µM
- TGI (U-251 [2]; read-out: pTGI (converted)): 10.7 µM
- growth at 0.1 µM (MDA-MB-435): 102%
- growth at 1000 µM (NCI-H522): -49%
- growth at 1 µM (CAKI-1): 99%
- GI50 (HOP-92 [3]; read-out: GI50): 1.56 µM
- CC50 (HOP-92 [3]; [11]): 97.6 µM
- TGI (HOP-92 [3]; read-out: TGI): 5.16 µM
- GI50 (HOP-92 [3]; read-out: pGI50 (converted)): 1.55 µM
- CC50 (HOP-92 [3]; [12]): 97.7 µM
- TGI (HOP-92 [3]; read-out: pTGI (converted)): 5.13 µM
- growth at 1000 µM (HOP-92 [4]): -50%
- growth at 100 µM (EKVX [5]): 9%
- growth at 10 µM (IGROV-1): 98%
- growth at 100 µM (DU-145 [6]): -35%
- growth at 10 µM (EKVX [7]): 104%
- GI50 (SN12C [8]; read-out: GI50): 1.81 µM
- CC50 (SN12C [8]; [11]): 6.29 µM
- TGI (SN12C [8]; read-out: TGI): 3.38 µM
- GI50 (SN12C [8]; read-out: pGI50 (converted)): 1.82 µM
- CC50 (SN12C [8]; [12]): 6.31 µM
- TGI (SN12C [8]; read-out: pTGI (converted)): 3.39 µM
- GI50 (DU-145 [9]; read-out: GI50): 2.58 µM
- CC50 (DU-145 [9]; [11]): 18.7 µM
- TGI (DU-145 [9]; read-out: TGI): 5.71 µM
- GI50 (DU-145 [9]; read-out: pGI50 (converted)): 2.57 µM
- CC50 (DU-145 [9]; [12]): 18.6 µM
- TGI (DU-145 [9]; read-out: pTGI (converted)): 5.75 µM
- growth at 1 µM (HCT-116): 105%
- growth at 100 µM (HT-29): -80%
- growth at 100 µM (SF-295): 7%
- growth at 0.1 µM (OVCAR-5): 96%
- growth at 1 µM (T47D): 105%
- growth at 1 µM (HCC 2998): 93%
- growth at 0.1 µM (786-0): 108%
- GI50 (PC-3; read-out: GI50): 2.69 µM
- CC50 (PC-3; [11]): > 100 µM
- TGI (PC-3; read-out: TGI): > 1 µM
- GI50 (PC-3; read-out: pGI50 (converted)): 2.69 µM
- CC50 (PC-3; [12]): > 100 µM
- TGI (PC-3; read-out: pTGI (converted)): > 100 µM
- growth at 0.1 µM (LOX IMVI): 102%
- growth at 10 µM (BT-549): 103%
- growth at 0.1 µM (ACHN): 107%
- growth at 100 µM (KM12): -66%
- growth at 0.1 µM (NCI-H322M): 102%
- growth at 1 µM (U-251 [10]): 102%
- growth at 0.1 µM (OVCAR-3): 111%

Compound: CNC(=O)OC[C@H]1O[C@@H](n2cnc3c(NC(=O)Nc4ccccc4)ncnc32)[C@H](O[Si](C)(C)C(C)(C)C)[C@@H]1O[Si](C)(C)C(C)(C)C
- growth at 10 µM (SN12C [1]): 101%
- growth at 10 µM (IGROV-1): 111%
- growth at 10 µM (EKVX [7]): 104%
